From publication PMC11247487, “Discovery of Dual MER/AXL Kinase Inhibitors as Bifunctional Small Molecules for Inhibiting Tumor Growth and Enhancing Tumor Immune Microenvironment” (Journal of Medicinal Chemistry, 2024)
Where “and” joins values, the source holds several entries; their conditions need not be identical. Identical values can stand only once. Like-named read-outs stand apart in the source and are kept apart here.

What was measured:
EGFR^DM (T790M/L858R) = EGFR^DM (T790M/L858R) (Homo sapiens, UniProt P00533, L858R/T790M); experiment: EGFR^DM in-house Kinase-Glo assay; type: biochemical
AXL = target: T1, AXL (Homo sapiens, UniProt P30530); experiment: AXL enzyme inhibition assay (ADP-Glo); type: biochemical
T1 construct: A purified kinase (MER or AXL) was incubated with a compound or DMSO
T1 sequence (P30530 26-894): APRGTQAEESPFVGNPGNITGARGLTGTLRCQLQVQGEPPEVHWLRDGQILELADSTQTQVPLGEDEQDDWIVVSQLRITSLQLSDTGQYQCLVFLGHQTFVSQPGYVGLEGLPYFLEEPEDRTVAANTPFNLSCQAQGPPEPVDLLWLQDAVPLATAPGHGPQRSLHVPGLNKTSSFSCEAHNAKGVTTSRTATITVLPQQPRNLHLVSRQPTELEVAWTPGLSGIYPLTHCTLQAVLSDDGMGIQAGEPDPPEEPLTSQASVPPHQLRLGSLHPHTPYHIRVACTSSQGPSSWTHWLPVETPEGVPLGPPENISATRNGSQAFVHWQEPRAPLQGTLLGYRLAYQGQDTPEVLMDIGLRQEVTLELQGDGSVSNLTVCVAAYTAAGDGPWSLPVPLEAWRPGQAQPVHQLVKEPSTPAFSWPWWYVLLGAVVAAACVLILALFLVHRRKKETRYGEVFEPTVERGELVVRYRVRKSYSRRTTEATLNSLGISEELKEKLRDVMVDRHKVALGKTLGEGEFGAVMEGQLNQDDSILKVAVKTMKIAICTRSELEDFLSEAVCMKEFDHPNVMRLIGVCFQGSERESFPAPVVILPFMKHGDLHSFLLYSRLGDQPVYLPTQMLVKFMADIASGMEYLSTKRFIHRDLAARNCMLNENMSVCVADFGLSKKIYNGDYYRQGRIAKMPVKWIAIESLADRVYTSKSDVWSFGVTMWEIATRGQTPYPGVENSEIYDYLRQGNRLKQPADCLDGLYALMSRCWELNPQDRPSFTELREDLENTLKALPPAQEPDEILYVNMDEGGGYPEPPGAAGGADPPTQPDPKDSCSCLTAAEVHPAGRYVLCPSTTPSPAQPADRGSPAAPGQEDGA

MER = target: T2, MER (Homo sapiens, UniProt Q12866); experiment: MER enzyme inhibition assay (in-house Kinase-Glo); type: biochemical
T2 construct: A purified kinase (MER or AXL) was incubated with a compound or DMSO
T2 sequence (Q12866 21-999): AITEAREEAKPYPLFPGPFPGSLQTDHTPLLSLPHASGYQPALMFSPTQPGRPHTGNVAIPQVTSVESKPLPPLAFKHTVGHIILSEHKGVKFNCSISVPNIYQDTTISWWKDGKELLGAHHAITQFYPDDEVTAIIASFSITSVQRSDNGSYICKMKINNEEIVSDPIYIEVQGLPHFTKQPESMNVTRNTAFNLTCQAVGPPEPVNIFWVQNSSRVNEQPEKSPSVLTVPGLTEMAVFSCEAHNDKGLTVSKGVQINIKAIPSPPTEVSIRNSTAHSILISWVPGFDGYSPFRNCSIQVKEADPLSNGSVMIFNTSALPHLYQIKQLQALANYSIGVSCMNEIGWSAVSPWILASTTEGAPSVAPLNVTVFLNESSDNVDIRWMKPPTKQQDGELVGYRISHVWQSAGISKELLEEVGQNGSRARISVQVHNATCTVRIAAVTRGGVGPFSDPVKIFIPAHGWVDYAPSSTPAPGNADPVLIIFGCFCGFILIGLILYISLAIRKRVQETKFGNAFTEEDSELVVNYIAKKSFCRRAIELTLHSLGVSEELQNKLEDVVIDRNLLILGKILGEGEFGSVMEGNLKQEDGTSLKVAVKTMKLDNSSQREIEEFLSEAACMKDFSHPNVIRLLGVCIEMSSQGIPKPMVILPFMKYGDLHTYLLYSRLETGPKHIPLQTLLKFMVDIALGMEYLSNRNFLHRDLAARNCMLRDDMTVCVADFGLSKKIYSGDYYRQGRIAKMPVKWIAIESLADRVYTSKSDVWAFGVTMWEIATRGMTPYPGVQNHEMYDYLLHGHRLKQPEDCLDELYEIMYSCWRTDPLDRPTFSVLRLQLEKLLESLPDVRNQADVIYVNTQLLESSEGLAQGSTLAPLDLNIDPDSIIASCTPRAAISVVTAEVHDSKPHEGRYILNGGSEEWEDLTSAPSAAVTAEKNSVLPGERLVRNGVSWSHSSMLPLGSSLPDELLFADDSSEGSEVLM

EGFR^WT = EGFR^WT (Homo sapiens, UniProt P00533); experiment: EGFR^WT in-house Kinase-Glo assay; type: biochemical
Ba/F3-MER cells = experiment: Cell viability assay (MTS); type: cell-based; conditions: 72 h
[1] = In vivo pharmacokinetics study; conditions: mice; for clearance at 24 h: read-out: iv CL; for Vd at 24 h: read-out: iv Vss; for iv DNAUC(0–inf) / po DNAUC(0–inf) / po DNCmax: dose-normalized
Protocol: The animal studies were performed according to NHRI institutional animal care and committee-approved procedures. Male ICR mice (25–35 g) were obtained from BioLASCO (Taiwan Co., Ltd., Ilan, Taiwan). […] All samples were analyzed for the parent drug by LC-MS/MS. Plasma concentration data were analyzed with a noncompartmental method.

[2] = In vitro microsomal stability assay; type: in vitro ADME; conditions: 1 μM, mouse liver microsomes, percent remaining at 30 min
Protocol: All incubations were initiated with the addition of NADPH-generating system at 37 °C for 30 min. At 0 and the end of incubation, 100 μL of aliquots were taken from the incubation mixture and placed into centrifuge tubes containing 100 μL of ice-cold acetonitrile to terminate the metabolic reaction. The samples were vortexed and centrifuged, and then, the supernatant injected onto LC/MS. Percent of remaining of each compound was calculated by comparing peak areas at 30 min to that at the initiation of incubation.

[3] = male, ICR, mouse, plasma, iv 2 mg/kg
[4] = male, ICR, mouse, plasma, iv 2 mg/kg, read-out: iv T1/2 (converted)
[5] = male, ICR, mouse, plasma, iv 2 mg/kg, po 10 mg/kg
[6] = male, ICR, mouse, plasma, po 10 mg/kg
[7] = male, ICR, mouse, plasma, po 10 mg/kg, read-out: po T1/2 (converted)

## Nc1cccc(-c2c(-c3ccccc3)oc3ncnc(Oc4ccc(NC(=O)c5cccn(-c6ccc(F)cc6)c5=O)cc4)c23)c1 [Compound 17, N-(4-{[5-(3-Aminophenyl)-6-phenylfuro[5,4-d]pyrimidin-4-yl]oxy}phenyl)-1-(4-fluorophenyl)-2-oxo-1,2-dihydropyridine-3-carboxamide]
EGFR^DM (T790M/L858R); read-out: EGFR^DM inh. @ 1 μM
  inhibition at 1 µM: -1%
AXL; read-out: AXL inh. @ 1 μM
  inhibition at 1 µM: 100%
MER; read-out: MER inh. @ 1 μM
  inhibition at 1 µM: 70%
EGFR^WT; read-out: EGFR^WT inh. @ 1 μM
  inhibition at 1 µM: 1%
Ba/F3-MER cells
  IC50: 8.4 nM and 8.2 nM

## CC(=O)Nc1cccc(-c2c(-c3cnn(C)c3)oc3ncnc(Oc4ccc(NC(=O)c5cccn(-c6ccc(F)cc6)c5=O)cc4)c23)c1 [Compound 28, N-[4-({5-[3-(Acetylamino)phenyl]-6-(1-methyl-1H-pyrazol-4-yl)furo[2,3-d]pyrimidin-4-yl}oxy)phenyl]-1-(4-fluorophenyl)-2-oxo-1,2-dihydropyridine-3-carboxamide]
[1]; [3]
  clearance at 24 h: 20.5 mL/min/kg
  Vd at 24 h: 10.5 L/kg
[1]; [4]
  half-life at 24 h: 12.7 h
[1]; iv 2 mg/kg
  iv DNAUC(0–inf): 766.5 ng·h/mL
[2]
  Microsomal stability @ 30 min: 91%
Ba/F3-MER cells
  IC50: 1 nM

## CNc1cccc(-c2c(-c3cnn(C)c3)oc3ncnc(Oc4ccc(NC(=O)c5cccn(-c6ccc(F)cc6)c5=O)cc4)c23)c1 [Compound 29, 1-(4-Fluorophenyl)-N-[4-({5-[3-(methylamino)phenyl]-6-(1-methyl-1H-pyrazol-4-yl)furo[2,3-d]pyrimidin-4-yl}oxy)phenyl]-2-oxo-1,2-dihydropyridine-3-carboxamide]
[1]; [5]
  bioavailability at 24 h: 0.5%
[1]; [3]
  clearance at 24 h: 5.3 mL/min/kg
  Vd at 24 h: 1.3 L/kg
[1]; [4]
  half-life at 24 h: 8.5 h
[1]; [6]
  Tmax at 24 h: 24 h
[1]; iv 2 mg/kg
  iv DNAUC(0–inf): 3,330.5 ng × hr/mL
[1]; po 10 mg/kg
  po DNAUC(0–inf): 15.3 ng·h/mL
  po DNCmax: 1.4 ng/mL
[2]
  Microsomal stability @ 30 min: 100%
Ba/F3-MER cells
  IC50: 1.2 nM

## Cn1cc(-c2oc3ncnc(Oc4ccc(NC(=O)c5cccn(-c6ccc(F)cc6)c5=O)cc4)c3c2-c2cccc(CN)c2)cn1 [Compound 31, N-[4-({5-[3-(Aminomethyl)phenyl]-6-(1-methyl-1H-pyrazol-4-yl)furo[2,3-d]pyrimidin-4-yl}oxy)phenyl]-1-(4-fluorophenyl)-2-oxo-1,2-dihydropyridine-3-carboxamide]
[1]; [3]
  clearance at 24 h: 35.1 mL/min/kg
  Vd at 24 h: 9.9 L/kg
[1]; [4]
  half-life at 24 h: 6.3 h
[1]; iv 2 mg/kg
  iv DNAUC(0–inf): 483.0 ng·h/mL
[2]
  Microsomal stability @ 30 min: 77%
Ba/F3-MER cells
  IC50: 7.6 nM

## Cn1cc(-c2oc3ncnc(Oc4ccc(NC(=O)c5cccn(-c6ccc(F)cc6)c5=O)cc4)c3c2-c2cccc(N3CCNCC3)c2)cn1 [Compound 34, 1-(4-Fluorophenyl)-N-[4-({6-(1-methyl-1H-pyrazol-4-yl)-5-[3-(piperazin-1-yl)phenyl]furo[2,3-d]pyrimidin-4-yl}oxy)phenyl]-2-oxo-1,2-dihydropyridine-3-carboxamide]
[1]; [5]
  bioavailability at 24 h: 0.6%
[1]; [3]
  clearance at 24 h: 42.9 mL/min/kg
  Vd at 24 h: 14.2 L/kg
[1]; [4]
  half-life at 24 h: 6.7 h
[1]; [6]
  Tmax: 2.2 h
[1]; [7]
  half-life at 24 h: 4.7 h
[1]; iv 2 mg/kg
  iv DNAUC(0–inf): 454.5 ng·h/mL
[1]; po 10 mg/kg
  po DNAUC(0–inf): 2.6 ng·h/mL
  po DNCmax: 0.7 ng/mL
[2]
  Microsomal stability @ 30 min: 83%
AXL
  IC50: 12.1 nM
MER
  IC50: 2.1 nM
Ba/F3-MER cells
  IC50: 8.4 nM

## CN(C)Cc1ccc(-c2c(-c3cnn(C)c3)oc3ncnc(Oc4ccc(NC(=O)c5cccn(-c6ccc(F)cc6)c5=O)cc4)c23)cc1 [Compound 39, N-{4-[(5-{4-[(Dimethylamino)methyl]phenyl}-6-(1-methyl-1H-pyrazol-4-yl)furo[2,3-d]pyrimidin-4-yl)oxy]phenyl}-1-(4-fluorophenyl)-2-oxo-1,2-dihydropyridine-3-carboxamide]
[1]; [5]
  bioavailability: > 20%
  bioavailability at 24 h: 26.2%
[1]; [3]
  clearance at 24 h: 84 mL/min/kg
  Vd at 24 h: 8 L/kg
[1]; [4]
  half-life at 24 h: 11.2 h
[1]; [6]
  Tmax at 24 h: 2 h
[1]; [7]
  half-life at 24 h: 2.4 h
[1]; iv 2 mg/kg
  iv DNAUC(0–inf): 208.0 ng·h/mL
[1]; po 10 mg/kg
  po DNAUC(0–inf): 54.4 ng·h/mL
  po DNCmax: 5.7 ng/mL
[2]
  Microsomal stability @ 30 min: 67%

## (4-{[5-(3-Aminophenyl)-6-phenylfuro[5,4-d]pyrimidin-4-yl]oxy}phenyl)-N-(phenylacetyl)carbamothioic amide [Compound 16]
EGFR^DM (T790M/L858R)
  EGFR^DM inh. @ 1 μM: −6%
AXL
  AXL inh. @ 1 μM: 95%
MER
  MER inh. @ 1 μM: 9%
EGFR^WT
  EGFR^WT inh. @ 1 μM: 1%
Ba/F3-MER cells
  IC50: 1140 nM

## N^1-(4-Fluorophenyl)-N^1-{4-[(6-phenylfuro[2,3-d]pyrimidin-4-yl)oxy]phenyl}cyclopropane-1,1-dicarboxamide [Compound 14]
EGFR^DM (T790M/L858R)
  EGFR^DM inh. @ 1 μM: 1%
AXL
  AXL inh. @ 1 μM: 53%
MER
  MER inh. @ 1 μM: 4%
EGFR^WT
  EGFR^WT inh. @ 1 μM: 4%
Ba/F3-MER cells
  IC50: 3630 nM

## N^1-(4-{[5-(3-Aminophenyl)-6-phenylfuro[2,3-d]pyrimidin-4-yl]amino}phenyl)-N^1-(4-fluorophenyl)cyclopropane-1,1-dicarboxamide [Compound 15]
EGFR^DM (T790M/L858R)
  EGFR^DM inh. @ 1 μM: −4%
AXL
  AXL inh. @ 1 μM: 92%
MER
  MER inh. @ 1 μM: 19%
EGFR^WT
  EGFR^WT inh. @ 1 μM: 1%
Ba/F3-MER cells
  IC50: 713 nM

## N^1-(4-{[5-(3-Aminophenyl)-6-phenylfuro[2,3-d]pyrimidin-4-yl]oxy}phenyl)-N^1-(4-fluorophenyl)cyclopropane-1,1-dicarboxamide [Compound 12]
EGFR^DM (T790M/L858R)
  EGFR^DM inh. @ 1 μM: −9%
AXL
  AXL inh. @ 1 μM: 100%
MER
  MER inh. @ 1 μM: 71%
EGFR^WT
  EGFR^WT inh. @ 1 μM: 0%
Ba/F3-MER cells
  IC50: 73.6 nM

## N^1-{4-[(5,6-Diphenylfuro[2,3-d]pyrimidin-4-yl)oxy]phenyl}-N^1-(4-fluorophenyl)cyclopropane-1,1-dicarboxamide [Compound 13]
EGFR^DM (T790M/L858R)
  EGFR^DM inh. @ 1 μM: 2%
AXL
  AXL inh. @ 1 μM: 98%
MER
  MER inh. @ 1 μM: 41%
EGFR^WT
  EGFR^WT inh. @ 1 μM: 3%
Ba/F3-MER cells
  IC50: 658 nM
